Data set [1] concerns oedème induit par carraghénine injectée dans la patte de rats. Briefly: Carrageenan-induced rat paw oedema (antiphlogistic activity, Winter et al). Format: in vivo. The settings on record: voie orale; for Volume de l'oedème - ml ± d.s. après 3 heures: 3 heures après le traitement oedémigène; for Volume de l'oedème - ml ± d.s. après 6 heures: 6 heures après le traitement oedémigène. From the text: L'activité antiphlogistique de l'acétylsalicylate de 2(o-méthoxy-phénoxy) éthanol a été évaluée en comparaison avec celle de l'acide acétylsalicylique sur la base de la variation de volume de l'oedème induit par carraghénine injectée dans la patte de rats, suivant la technique décrite par Winter et al (Proc. Soc. Exp. Biol. Med., volume III, page 544, 1962). Les résultats de l'élaboration des épreuves sont indiqués dans le Tableau 1, dans lequel le volume de l'oedème est indiqué en millilitres z la déviation standard, et il a été mesuré 3, 4,5 et 6 heures après le traitement oedémigène; la dose de substance est indiquée en milligrammes de substance administrée par voie orale pour chaque kilogramme de poids corporel des rats; les valeurs marquées par * correspondent à une probabilité d'erreur p < 0,05, les valeurs marquées correspondent à une probabilité d'erreur p < 0,01, calculées sur les valeurs des contrôles, et les valeurs indiquées entre parenthèses indiquent l'inhibition en pour-cent calculée par rapport aux contrôles.
In general terms: In the carrageenan paw model, swelling and tenderness develop within hours.

Data set [2] deals with température corporelle, augmentée par l'injection intraveineuse de nucléinate de sodium dans le lapin. Briefly: Antipyretic activity: rise in body temperature induced by intravenous sodium nucleinate. In kind it is in vivo. The note with it: for Augmentation temperature corporelle - °C ± d.s. après 1 heure: 1 heure après l'administration; for Augmentation temperature corporelle - °C ± d.s. après 2 heures: 2 heures après l'administration; for Augmentation temperature corporelle - °C ± d.s. après 3 heures: 3 heures après l'administration; for Augmentation temperature corporelle - °C ± d.s. après 4 heures: 4 heures après l'administration. From the text:
L'activité antipyrétique de l'acétylsalicylate de 2(o-méthoxy-phénoxy)éthanol a été evaluée en comparaison avec celle de l'acide acétylsalicylique suivant la méthode, universellement employée, de la mesure de la variation de la température corporelle, augmentée par 1' injection intraveineuse de nucléinate de sodium dans le lapin. Les résultats de l'élaboration statistique des épreuves sont indiqués dans le suivant Tableau 2, dans lequel l'augmentation de la température corporelle est indiquée en °C ± la déviation standard, et a été mesurée 1, 2, 3 et 4 heures après l'administration; pour les autres valeurs est valable ce qui a été spécifié en relation avec le Tableau 1.

For data set [3], the system named is rats. The settings on record: rat, in vivo, 500 mg/kg. From the text: La toxicité subaiguë de l'acétylsalicylate de 2(o-méthoxy-phénoxy)éthanol a été évaluée en comparaison avec celle de l'acide acétylsalicylique en administrant à des rats, par voie orale, des doses journalières de substance pour 10 jours, et en relevant le nombre des animaux morts, la diminution moyenne de poids des animaux traités et l'incidence des lésions gastriques relevées, distinguées en simple hyperémie, hyperémie accompagnée par hémorragie et hémorragie accompagnée par ulcérations. Les résultats des épreuves sont indiqués dans le Tableau 5, dans lequel la dose de substance administrée est exprimée en mg de substance par kg de poids corporel et par jour, et la diminution moyenne de poids corporel à la fin du traitement est exprimée en grammes.

Data set [4] concerns convulsions abdominales (writhings) induites dans le souris par une injection intrapéritonéale d'acide acétique. Briefly: Acetic acid writhing test (analgesic activity, Koster and Anderson). Format: in vivo. The settings on record: for Frequence writhings: souris, 60 minutes après l'administration, ± déviation standard. An excerpt: L'activité analgésique de l'acétylsalicylate de 2(o-méthoxy-phénoxy)éthanol a été évaluée en comparaison avec celle de l'acide acétylsalicylique sur la base de la fréquence des convulsions abdominales (writhings) induites dans le souris par une injection intrapéritonéale d'acide acétique, suivant la technique décrite par Koster et Anderson (Fed. Proc., volume 18, page 412, 1959). Les résultats de l'élaboration statistique des épreuves sont indiqués dans le suivant Tableau 3, dans lequel la fréquence des convulsions est indiquée comme nombre de convulsions par minute ± la déviation standard, et a été mesurée 60 minutes après l'administration; pour les autres valeurs est valable ce qui a été spécifié en relation avec le Tableau 1.
A general note: An intraperitoneal irritant provokes the stretching counted in writhing tests.

Data set [5] has as its system arbre bronchial de rats Wistar. Briefly: Bronchosecretolytic activity: pulmonary excretion of fluorescein (Mawatari). In kind it is in vivo. The note with it: rats Wistar, 101,8 mg/Kg. An excerpt: L'activité bronchosécrétolytique de l'acétylsalicylate de 2(o-méthoxy-phénoxy)éthanol a été évaluée en comparaison avec celle du gaïacoléthanol, sur la base de la mesure des variations de la quantité d'indicateur (fluorescéine) trouvée dans l'arbre bronchial de rats Wistar, recueillie au moyen d'un système de lavage standardisé, après injection parentérale de l'indicateur, et mesurée au moyen d'un spectrofluorométre, suivant la méthode décrite par H.Mawatari ("Expérimental studies on the expectorant action of several drugs", Kagoshima Daigakeu Igakeu Zasshi, volume 27, page 561, 1976). Les résultats de l'élaboration statistique des épreuves sont recueillis dans le suivant tableau 4,dans lequel l' excrétion pulmonaire de fluorescéine est exprimée en microgrammes ± la déviation standard, soit dans la quantité totale trouvée, soit dans la quantité pour-cent rapportée à 100 g de poids corporel des rats. Entre parenthèses sont indiquées les valeurs de l'augmentation pour-cent par rapport aux contrôles. Pour les autres valeurs est valable ce qui été précisé en relation au Tableau 1.

One may read the inhibition as the change of the read-out against control, counted positive when it falls. As to `CC(=O)Oc1ccccc1C(=O)O` [Acide acétyl-salicylique, acide acétylsalicylique, reference compound], in data set [1] (100 mg/Kg), the “inhibition en pour-cent calculée par rapport aux contrôles, après 3 heures” value is reported as 44,0 pour-cent; the “Volume de l'oedème - ml ± d.s. après 3 heures” value is 0,380 ± 0,21 ml; the “inhibition en pour-cent calculée par rapport aux contrôles, après 6 heures” value is reported as 41,0 pour-cent; the “Volume de l'oedème - ml ± d.s. après 6 heures” value is on record as 0,285 ± 0,18 ml. For the same compound, the “inhibition en pour-cent calculée par rapport aux contrôles, après 4,5 heures” value in data set [1] (100 mg/Kg, 4,5 heures) was 35,0 pour-cent. Also, the “Volume de l'oedème - ml ± d.s. après 4,5 heures” value in data set [1] (100 mg/Kg, 4,5 heures après le traitement oedémigène) is 0,395 ± 0,14 ml. Also, in data set [1] (200 mg/Kg), the “inhibition en pour-cent calculée par rapport aux contrôles, après 3 heures” value is 56,5 pour-cent; the “Volume de l'oedème - ml ± d.s. après 3 heures” value is given as 0,297 ± 0,17 ml; the “inhibition en pour-cent calculée par rapport aux contrôles, après 6 heures” value is given as 43,0 pour-cent; the “Volume de l'oedème - ml ± d.s. après 6 heures” value was 0,275 ± 0,18 ml. The “inhibition en pour-cent calculée par rapport aux contrôles, après 4,5 heures” value in data set [1] (200 mg/Kg, 4,5 heures) is on record as 39,0 pour-cent. The “Volume de l'oedème - ml ± d.s. après 4,5 heures” value in data set [1] (200 mg/Kg, 4,5 heures après le traitement oedémigène) is reported as 0,370 ± 0,09 ml. Also, in data set [2] (100 mg/Kg), the “inhibition en pour-cent calculée par rapport aux contrôles, après 1 heure” value was 40 pour-cent; the “Augmentation temperature corporelle - °C ± d.s. après 1 heure” value was 0,75 ± 0,16 °C; the “inhibition en pour-cent calculée par rapport aux contrôles, après 2 heures” value was 46 pour-cent; the “Augmentation temperature corporelle - °C ± d.s. après 2 heures” value was 0,78 ± 0,17 °C. Besides, in data set [2] (100 mg/Kg), the “inhibition en pour-cent calculée par rapport aux contrôles, après 3 heures” value was 43 pour-cent; the “Augmentation temperature corporelle - °C ± d.s. après 3 heures” value is 0,94 ± 0,12 °C; the “inhibition en pour-cent calculée par rapport aux contrôles, après 4 heures” value was 26 pour-cent; the “Augmentation temperature corporelle - °C ± d.s. après 4 heures” value is 0,55 ± 0,1 °C. Also, in data set [2] (200 mg/Kg), the “inhibition en pour-cent calculée par rapport aux contrôles, après 1 heure” value was 50 pour-cent; the “Augmentation temperature corporelle - °C ± d.s. après 1 heure” value was 0,62 ± 0,13 °C; the “inhibition en pour-cent calculée par rapport aux contrôles, après 2 heures” value is 51 pour-cent; the “Augmentation temperature corporelle - °C ± d.s. après 2 heures” value was 0,71 ± 0,18 °C. In data set [2] (200 mg/Kg), the “inhibition en pour-cent calculée par rapport aux contrôles, après 3 heures” value is 43 pour-cent; the “Augmentation temperature corporelle - °C ± d.s. après 3 heures” value was 0,93 ± 0,16 °C; the “inhibition en pour-cent calculée par rapport aux contrôles, après 4 heures” value was 31 pour-cent; the “Augmentation temperature corporelle - °C ± d.s. après 4 heures” value was 0,52 ± 0,07 °C. In data set [3], the “Lésions gastriques Hyperémie” value was 4, the “Lésions gastriques Hyperémie + hémorragie” value is 3, the “Lésions gastriques Hémorragie + ulcérations” value came out at 2 and the Nombre animaux morts amounted to 6. In data set [3], this compound displayed a Δ poids moyenne of -30 grammes. In addition, in data set [4] (1 h), testing at 100 mg/kg gave an inhibition of 30% and the inhibition at 200 mg/kg turned out to be 44%. For the same compound, the Frequence writhings result in data set [4] (100 mg/Kg) is reported as “*20,5 ± 6,7 convulsions par minute”. In addition, in data set [4] (200 mg/Kg), the Frequence writhings entry was “**16,4 ± 5,8 convulsions par minute”.

For `COc1ccccc1OCCO` [Gaïacol-éthanol, gaïacoléthanol, reference compound], in data set [5], the “augmentation pour-cent par rapport aux contrôles (excrétion pulmonaire de fluorescéine, quantité totale)” value is “+72,2 pour-cent”. Further, in data set [5] (rapportée à 100 g de poids corporel, ± déviation standard), the “Excrétion pulmonaire de fluorescéine Quantité pour-cent µg/100 g” value was 0,202 ± 0,034 µg/100 g. The “Excrétion pulmonaire de fluorescéine Quantité totale µg” value in data set [5] (± déviation standard) is 0,434 ± 0,064 µg.

The values above are taken from EP0070049A1, “Derivative of acetylsalicylic acid having an analgetic, antipyretic, antiphlogistic and bronchosecretolytic activity” (UNIONE CHIMICA MEDICAMENTI- DIFME-S.p.A., priority 1981, dated 1983).
